Results from patent US8658129B2, “Agents and methods for the imaging of myelin basic protein” (General Electric Company, priority 2009, dated 2014).

Columns and labels:
[1] = test system: nerve tissue sections; experiment: Ex vivo staining of nerve tissue sections by the agents (histochemical assay); type: binding, rat; design: key to Nerve binding, ex vivo: A+ indicates binding to nerves using the ex vivo histochemical assay; settings: for Nerve binding, ex vivo: 10 uM agent, 20 minutes, nerve tissue sections; for staining of the trigeminal nerves: rat trigeminal nerve sections, FIG. 1
Description: Various nerves including sciatic, femoral, brachial plexus, trigeminal, optic, and penile were harvested from male Sprague Dawley rats or male CD-1 mice. Tissue was fixed by perfusion and/or post-fixation with formalin. Following post-fixation, tissue was cryoprotected in a 20% sucrose solution made in phosphate buffered saline (PBS). Nerves were then flash-frozen using methanol and dry ice in OCT media. In some cases, PVDF membranes were used to help keep the nerves vertical in the OCT media. Thin sections (5-10 microns) were sliced on a Leica microtome (Leica Microsystems GmbH, Wetzlar Germany) and stored in a −80° C. freezer prior to staining with agents (1)-(5).
The agents were dissolved in DMSO to make a 10 mM stock solution. Slides containing nerve tissue sections were rinsed three times with PBS. The tissue sections were incubated with a solution of 10 uM of each fluorophore diluted in either PBS or a mixture of 99 uL DMSO, 100 uL cremaphor, 600 uL rat serum, and 200 uL PBS for 20 minutes. The slides were then washed with PBS for 5 min three times, cover-slipped with Vectashield and imaged on a Zeiss Axioimager microscope (Carl Zeiss Meditec, Inc., Oberkochen, Germany) at 200× magnification. A custom filter cube (excitation filter: 387 nm with 11 nm bandpass, 409 nm dichroic mirror; emission filter 409 nm long pass) was used to collect images for examination of morphology and for image analysis.
The control slides, containing the nerves with no agent (not shown), was negative under the same imaging conditions.

[2] = Absorbance and fluorescence spectra of the agents; type: physicochemical; settings: for Excitation (DMSO): excitation maximum in 100% DMSO; for Excitation(MeOH): excitation maximum in absolute methanol; for ExcitationddH2O: excitation maximum in distilled/deionized water; for Emission(DMSO): fluorescence emission maximum in DMSO; for Emission(MeOH): fluorescence emission maximum in MeOH; for EmissionddH2O: fluorescence emission maximum in ddH2O
Protocol: Absorbance spectra of the agents were measured using a UV-Vis spectrometer (PerkinElmer Lambda™ 20, PerkinElmer, Inc., Waltham Mass.) in wavelengths ranging from 200-to-800 nm in 100% dimethylsulfoxide (DMSO), absolute methanol (MeOH), and distilled/deionized water (ddH2O). The wavelength corresponding to the maximum absorbance is recorded and used as the excitation wavelength for future fluorescence measurements.
The fluorescence spectra of the agents were collected in DMSO, MeOH, and ddH2O under continuous excitation using a xenon short arc light source (Ushio UXL 75W, Ushio America, Inc., Cyress Calif.) equipped fluorimeter (350-900 nm; PTI Fluorimeter, Photon Technology International Birmingham, N.J.). A+ indicates binding to nerves using the ex vivo histochemical assay.

[3] = Dynamic light scattering measurement of aqueous solubility; type: physicochemical; settings: 25° C., angle of 173°, in nm (unit assumed)
Protocol: Dynamic light scattering spectroscopy was used to measure aqueous solubility. Measurements were collected on a Malvern HPPS500 spectrometer (Malvern Instruments Inc., Southborough, Mass.). Samples were measured in a low volume disposable cuvette at 25° C., at an angle of 173°. Each sample was analyzed in duplicate. Z average measurements were taken to determine the relative molecular “size” of the formulation in terms of the hydrodynamic diameter (DH) radius in solution. DH is inversely related the z-average translational diffusion coefficient (D) in the solution.

[4] = test system: nerves; experiment: In vivo fluorescence imaging of nerves; design: species or system mice; settings: for nerve-to-adipose tissue ratio: fluorescence emission of 600 nm, compared to agents (4) and (5), FIG. 2
Protocol: To assess the efficacy of the sulfonamide agents in-vivo the agents were formulated using the following excipients: 5-20% propylene glycol (v/v; JT Baker 9402-01), 5-30% 2-Hydroxylpropyl-β-Cyclodextrin (w/v; Sigma H5784) and 70-90% distilled/deionized water (v/v).
To prepare the pharmaceutical carrier, each excipient is added individually beginning with propylene glycol. Propylene glycol is added directly to the agent and vortexed for approximately 1 minute to guarantee maximal dispersal of the agent in the excipient. The next excipient to be added to the solution is 2-Hydroxylpropyl-β-Cyclodextrin. Cyclodextrin's are cyclic (R-1,4) linked oligosaccharides containing a relatively hydrophobic central cavity and hydrophilic outer surface. The application of cyclodextrin in formulation is to enhance the solubility of a compound in aqueous solutions. In formulation of the sulfonamide analogs a final concentration of 5-15%; 2-Hydroxypropyl β-cyclodextrin (w/v) is added to the solution. The formulation is again vortexed for 1-5 minutes and the pH adjusted to a final range between 4-5. The final step in the formulation is to bring the solution to the volume with distilled/deionized water.
Male CD-1 mice between 25-35 grams were purchased from Charles River Laboratories (Wilmington, Mass.). Prior to administration of the agent, animals were briefly anesthetized using 2% isofluorane. Each agent was then administered in a 15.2 mg/kg dose via tail vein catheterization. Each rodent was allowed to recover from anesthesia prior to returning to the home cage.
Structure (2) and (3) were administered at an average of 15 mg/kg formulated in the pharmaceutical carrier. Formulated agents were administered in mice 4 hours prior to imaging using a Zeiss Lumara microscope (Carl Zeiss Meditec, Inc., Oberkochen, Germany) with an attached CRI Nuance™ camera for multispectral fluorescence imaging (Cambridge Research & Instrumentation, Inc., Woburn, Mass.). The excitation wavelengths used were 406/15 nm or 460/60 nm.
The adjacent muscle tissues had very low background binding. […]

Nerve binding, ex vivo [1]	Excitation (DMSO) [2]	Excitation(MeOH) [2]	ExcitationddH2O [2]	Emission(DMSO) [2]	Emission(MeOH) [2]	EmissionddH2O [2]	Z-average [3]	time at which nerve-to-muscle ratio is best ([4]; mice, FIG. 4)	SMILES	staining of the trigeminal nerves [1]	nerve-to-adipose tissue ratio [4]
+	422 nm	392 nm	380 nm	621 nm	604 nm	581 nm			COc1cc(/C=C/c2ccc(S(=O)(=O)N3CCOCC3)cc2)ccc1/C=C/c1ccc(N)cc1 [(1)]	myelinated donut-shaped structures are visible	
+	388 nm	380 nm	412 nm	615 nm	488 nm	626 nm	29.70		COc1cc(/C=C/c2ccc(S(=O)(=O)N3CCN(CCO)CC3)cc2)ccc1/C=C/c1ccc(N)cc1.Cl [(3)]	myelinated donut-shaped structures are visible	

The next lines start with the molecule.

SMILES	Nerve binding, ex vivo [1]	Excitation (DMSO) [2]	Excitation(MeOH) [2]	ExcitationddH2O [2]	Emission(DMSO) [2]	Emission(MeOH) [2]	EmissionddH2O [2]	Z-average [3]	time at which nerve-to-muscle ratio is best ([4]; mice, FIG. 4)	staining of the trigeminal nerves [1]	nerve-to-adipose tissue ratio [4]
COc1cc(/C=C/c2ccc(S(=O)(=O)N(CCO)CCO)cc2)ccc1/C=C/c1ccc(N)cc1 [Structure 2]											higher
COc1cc(/C=C/c2ccc(C#N)cc2)ccc1/C=C/c1ccc(N)cc1 [(5)]								7365.00	four		
COc1cc(/C=C/c2ccc(S(C)(=O)=O)cc2)ccc1/C=C/c1ccc(N)cc1 [(4)]								2210.00			
COc1cc(/C=C/c2ccc(S(=O)(=O)N3CCN(CCO)CC3)cc2)ccc1/C=C/c1ccc(N)cc1.Cl [Structure 3]											higher
COc1cc(/C=C/c2ccc(S(=O)(=O)N(CCO)CCO)cc2)ccc1/C=C/c1ccc(N)cc1 [(2)]	+	392 nm	391 nm	409 nm	600 nm	680 nm	620 nm			myelinated donut-shaped structures are visible	
